In this assay the test system is MV-4-11 cells. The experiment in a line: Gene expression microarray analysis (Affymetrix PrimeView) and GSEA. In kind it is cell-based, human. Details: RFU PODN (11730768_x_at) / Fold change /veh PODN (11730768_x_at) / RFU LINC00158 (11744669_a_at) / Fold change /veh LINC00158 (11744669_a_at) / RFU DUSP10 (11751237_a_at) / Fold change /veh DUSP10 (11751237_a_at) / RFU ID3 (11757404_x_at) / Fold change /veh ID3 (11757404_x_at) / RFU PLEKHG5 (11737974_s_at) / Fold change /veh PLEKHG5 (11737974_s_at) / RFU LRRC4B (11730491_at) / Fold change /veh LRRC4B (11730491_at) / RFU GIMAP4 (11747438_a_at) / Fold change /veh GIMAP4 (11747438_a_at) / RFU KRT8 (11758183_x_at) / Fold change /veh KRT8 (11758183_x_at) / RFU CNN1 (11734310_a_at) / Fold change /veh CNN1 (11734310_a_at) / RFU VPS37D (11726825_at) / Fold change /veh VPS37D (11726825_at) / RFU C10orf10 (11716522_x_at) / Fold change /veh C10orf10 (11716522_x_at) / RFU KIR2DL2 /// KIR2DL4 /// KIR2DL5A /// KIR2DL5B /// KIR2DS1 /// KIR2DS2 /// KIR2DS3 /// KIR2DS4 /// KIR3DL3 /// KIR3DL3 /// KIR3DS1 (11738374_at) / Fold change /veh KIR2DL2 /// KIR2DL4 /// KIR2DL5A /// KIR2DL5B /// KIR2DS1 /// KIR2DS2 /// KIR2DS3 /// KIR2DS4 /// KIR3DL3 /// KIR3DL3 /// KIR3DS1 (11738374_at) / RFU C1QL1 (11718748_at) / Fold change /veh C1QL1 (11718748_at) / RFU TMPRSS4 (11747572_a_at) / Fold change /veh TMPRSS4 (11747572_a_at) / RFU HAMP (11756126_x_at) / Fold change /veh HAMP (11756126_x_at) / RFU RNFT2 (11725882_a_at) / Fold change /veh RNFT2 (11725882_a_at) / RFU NR4A2 (11747474_a_at) / Fold change /veh NR4A2 (11747474_a_at) / RFU ABCC12 (11746883_a_at) / Fold change /veh ABCC12 (11746883_a_at) / RFU TMEM136 (11760407_x_at) / Fold change /veh TMEM136 (11760407_x_at) / RFU CLDN22 /// WWC2 (11732394_at) / Fold change /veh CLDN22 /// WWC2 (11732394_at) / RFU HLA-DPB1 (11760878_x_at) / Fold change /veh HLA-DPB1 (11760878_x_at) / RFU SPINT1 (11716480_a_at) / Fold change /veh SPINT1 (11716480_a_at) / RFU GAP43 (11754022_s_at) / Fold change /veh GAP43 (11754022_s_at) / RFU A4GNT (11735810_at) / Fold change /veh A4GNT (11735810_at) / RFU PRB3 (11715151_x_at) / Fold change /veh PRB3 (11715151_x_at) / RFU TUBB4B (11761932_at) / Fold change /veh TUBB4B (11761932_at) / RFU CAPN14 (11732068_a_at) / Fold change /veh CAPN14 (11732068_a_at) / RFU TMCC2 (11721928_a_at) / Fold change /veh TMCC2 (11721928_a_at) / RFU IRGQ (11745062_a_at) / Fold change /veh IRGQ (11745062_a_at) / RFU FAM174B (11720279_a_at) / Fold change /veh FAM174B (11720279_a_at) / RFU TMPRSS4 (11748680_a_at) / Fold change /veh TMPRSS4 (11748680_a_at) / RFU FAM212B (11763350_a_at) / Fold change /veh FAM212B (11763350_a_at) / RFU PLEKHG5 (11743358_a_at) / Fold change /veh PLEKHG5 (11743358_a_at) / RFU ZSCAN30 (11745921_a_at) / Fold change /veh ZSCAN30 (11745921_a_at) / RFU CMKLR1 (11741424_a_at) / Fold change /veh CMKLR1 (11741424_a_at) / RFU LOC101060620 /// MAPK8IP1 (11723275_at) / Fold change /veh LOC101060620 /// MAPK8IP1 (11723275_at) / RFU SPTSSB (11747773_x_at) / Fold change /veh SPTSSB (11747773_x_at) / RFU PRSS12 (11739890_at) / Fold change /veh PRSS12 (11739890_at) / RFU BIN1 (11741810_x_at) / Fold change /veh BIN1 (11741810_x_at) / RFU WNT11 (11732464_a_at) / Fold change /veh WNT11 (11732464_a_at) / RFU C10orf10 (11716521_a_at) / Fold change /veh C10orf10 (11716521_a_at) / RFU C5orf56 (11738089_at) / Fold change /veh C5orf56 (11738089_at) / RFU CYB561 (11721691_x_at) / Fold change /veh CYB561 (11721691_x_at) / RFU ANKRD19P (11752326_a_at) / Fold change /veh ANKRD19P (11752326_a_at) / RFU OR2T12 /// OR2T33 /// OR2T8 (11738714_s_at) / Fold change /veh OR2T12 /// OR2T33 /// OR2T8 (11738714_s_at) / RFU VCAN (11748164_a_at) / Fold change /veh VCAN (11748164_a_at) / RFU JSRP1 (11732532_at) / Fold change /veh JSRP1 (11732532_at) / RFU KRTAP10-11 (11738290_x_at) / Fold change /veh KRTAP10-11 (11738290_x_at) / RFU MYO3A (11730013_a_at) / Fold change /veh MYO3A (11730013_a_at) / RFU EBF3 (11725865_a_at) / Fold change /veh EBF3 (11725865_a_at) / RFU CAMK2N1 (11719241_x_at) / Fold change /veh CAMK2N1 (11719241_x_at) / RFU C5orf56 (11738088_a_at) / Fold change /veh C5orf56 (11738088_a_at) / RFU OLFML3 (11715873_a_at) / Fold change /veh OLFML3 (11715873_a_at) / RFU LOC100653217 /// NTM (11731650_a_at) / Fold change /veh LOC100653217 /// NTM (11731650_a_at) / RFU MAPK11 (11762145_a_at) / Fold change /veh MAPK11 (11762145_a_at) / RFU FIZ1 (11724087_x_at) / Fold change /veh FIZ1 (11724087_x_at) / RFU OASL (11726364_x_at) / Fold change /veh OASL (11726364_x_at) / RFU SOX15 (11748057_x_at) / Fold change /veh SOX15 (11748057_x_at) / RFU CD79A (11719716_a_at) / Fold change /veh CD79A (11719716_a_at) / RFU HIST1H1D (11736915_at) / Fold change /veh HIST1H1D (11736915_at) / RFU CASKIN2 (11723855_a_at) / Fold change /veh CASKIN2 (11723855_a_at) / RFU LOC730098 (11760151_x_at) / Fold change /veh LOC730098 (11760151_x_at) / RFU OR4N2 (11742367_at) / Fold change /veh OR4N2 (11742367_at) / RFU PRRT2 (11749266_a_at) / Fold change /veh PRRT2 (11749266_a_at) / RFU SNX32 (11753110_a_at) / Fold change /veh SNX32 (11753110_a_at) / RFU CDHR5 (11726645_a_at) / Fold change /veh CDHR5 (11726645_a_at) / RFU RCAN1 (11760418_a_at) / Fold change /veh RCAN1 (11760418_a_at) / RFU FAM167A (11723789_a_at) / Fold change /veh FAM167A (11723789_a_at) / RFU FAM26E (11764081_at) / Fold change /veh FAM26E (11764081_at) / RFU ISYNA1 (11749810_s_at) / Fold change /veh ISYNA1 (11749810_s_at) / RFU ACY1 (11761880_at) / Fold change /veh ACY1 (11761880_at) / RFU 11764098_at / Fold change /veh 11764098_at / RFU SAMD14 (11745864_x_at) / Fold change /veh SAMD14 (11745864_x_at) / RFU NPB (11741838_a_at) / Fold change /veh NPB (11741838_a_at) / RFU TMPRSS6 (11731388_a_at) / Fold change /veh TMPRSS6 (11731388_a_at) / RFU KRTAP10-2 (11738614_at) / Fold change /veh KRTAP10-2 (11738614_at) / RFU ARHGAP8 /// PRR5-ARHGAP8 (11727945_x_at) / Fold change /veh ARHGAP8 /// PRR5-ARHGAP8 (11727945_x_at) / RFU KRTAP5-7 /// NADSYN1 (11734609_at) / Fold change /veh KRTAP5-7 /// NADSYN1 (11734609_at) / RFU RASL12 (11751679_a_at) / Fold change /veh RASL12 (11751679_a_at) / RFU CDKN2B (11736163_a_at) / Fold change /veh CDKN2B (11736163_a_at) / RFU PRF1 (11729649_at) / Fold change /veh PRF1 (11729649_at) / RFU, ZNF638 /// ZNF638-IT1 / Fold change vs veh, ZNF638 /// ZNF638-IT1 / RFU, PANK3 / Fold change vs veh, PANK3 / RFU, SH3YL1 / Fold change vs veh, SH3YL1 / RFU, ZEB2 / Fold change vs veh, ZEB2 / RFU, NRIP1 / Fold change vs veh, NRIP1 / RFU, PTTG1IP / Fold change vs veh, PTTG1IP / RFU, CAPN2 / Fold change vs veh, CAPN2 / RFU, MED14 / Fold change vs veh, MED14 / RFU, SNORA58 / Fold change vs veh, SNORA58 / RFU, C1orf63 / Fold change vs veh, C1orf63 / RFU, LRRFIP1 / Fold change vs veh, LRRFIP1 / RFU, NDUFAF7 / Fold change vs veh, NDUFAF7 / RFU, SLC12A2 / Fold change vs veh, SLC12A2 / RFU, IBTK / Fold change vs veh, IBTK / RFU, ESF1 / Fold change vs veh, ESF1 / Fold change vs veh, TMEM50B / RFU, TAOK1 / Fold change vs veh, TAOK1 / RFU, ACBD3 / Fold change vs veh, ACBD3 / RFU, TMA16 / Fold change vs veh, TMA16 / RFU, RWDD3 / Fold change vs veh, RWDD3 / RFU, BCAT1 / Fold change vs veh, BCAT1 / RFU, EDEM3 / Fold change vs veh, EDEM3 / RFU, TMEM33 / Fold change vs veh, TMEM33 / RFU, WDR75 / Fold change vs veh, WDR75 / RFU, AHCTF1 / Fold change vs veh, AHCTF1 / RFU, TFRC / Fold change vs veh, TFRC / RFU, ZDHHC17 / Fold change vs veh, ZDHHC17 / RFU, NOM1 / Fold change vs veh, NOM1 / RFU, ARL8B / Fold change vs veh, ARL8B / RFU, ZBTB11 / Fold change vs veh, ZBTB11 / RFU, TAMM41 / Fold change vs veh, TAMM41 / RFU, KIAA1704 /// LOC100996395 / Fold change vs veh, KIAA1704 /// LOC100996395 / RFU, ING1 / Fold change vs veh, ING1 / RFU, TRMT61B / Fold change vs veh, TRMT61B / RFU, FUBP3 / Fold change vs veh, FUBP3 / RFU, TP53 / Fold change vs veh, TP53 / RFU, TNKS2 / Fold change vs veh, TNKS2 / RFU, ZFP14 / Fold change vs veh, ZFP14 / RFU, ACTR2 / Fold change vs veh, ACTR2 / RFU, PPP3R1 / Fold change vs veh, PPP3R1 / RFU, PIK3R1 / Fold change vs veh, PIK3R1 / RFU, HNRNPA1 / Fold change vs veh, HNRNPA1 / RFU, RNF170 / Fold change vs veh, RNF170 / RFU, ZNF28 / Fold change vs veh, ZNF28 / RFU, RNGTT / Fold change vs veh, RNGTT / RFU, OGT / Fold change vs veh, OGT / RFU, BRD1 / Fold change vs veh, BRD1 / RFU, MARS / Fold change vs veh, MARS / RFU, ZNF655 / Fold change vs veh, ZNF655 / RFU, FAHD1 / Fold change vs veh, FAHD1 / RFU, BDP1 / Fold change vs veh, BDP1 / RFU, LRRCC1 / Fold change vs veh, LRRCC1 / RFU, ARID1A / Fold change vs veh, ARID1A / RFU, ZNF146 / Fold change vs veh, ZNF146 / RFU, ZNF330 / Fold change vs veh, ZNF330 / RFU, GPN3 / Fold change vs veh, GPN3 / RFU, C9orf123 / Fold change vs veh, C9orf123 / RFU, N4BP2L2 / Fold change vs veh, N4BP2L2 / RFU, ARFIP1 / Fold change vs veh, ARFIP1 / RFU, FAM179B / Fold change vs veh, FAM179B / RFU, BCL10 / Fold change vs veh, BCL10 / RFU, UHRF1BP1L / Fold change vs veh, UHRF1BP1L / RFU, BET1 / Fold change vs veh, BET1 / RFU, CNOT2 / Fold change vs veh, CNOT2 / RFU, ZNF268 / Fold change vs veh, ZNF268 / Fold change vs veh, ZNF507 / RFU, DGCR2 / Fold change vs veh, DGCR2 / RFU, WDSUB1 / Fold change vs veh, WDSUB1 / Fold change vs veh, HSP90B1 /// MIR3652 / RFU, ADSS / Fold change vs veh, ADSS / RFU, GK / Fold change vs veh, GK / RFU, ZNF148 / Fold change vs veh, ZNF148 / RFU, TAF9 / Fold change vs veh, TAF9 / RFU, SLC1A5 / Fold change vs veh, SLC1A5 / RFU, SLMO2 / Fold change vs veh, SLMO2 / RFU, ABCC4 / Fold change vs veh, ABCC4 / RFU, LOC101060439 /// RAP1B / Fold change vs veh, LOC101060439 /// RAP1B / RFU, RFX7 / Fold change vs veh, RFX7 / RFU, GTPBP10 / Fold change vs veh, GTPBP10 / RFU, CNEP1R1 / Fold change vs veh, CNEP1R1 / RFU, BIVM-ERCC5 /// ERCC5 / Fold change vs veh, BIVM-ERCC5 /// ERCC5 / RFU, ILF3 / Fold change vs veh, ILF3 / RFU 11762660_at / Fold change /veh 11762660_at / RFU VCAN (11757783_s_at) / Fold change /veh VCAN (11757783_s_at) / RFU DDX43 (11728927_at) / Fold change /veh DDX43 (11728927_at) / RFU KRT8 (11758188_x_at) / Fold change /veh KRT8 (11758188_x_at) / RFU NKD1 (11759106_at) / Fold change /veh NKD1 (11759106_at) / RFU SRD5A1 (11742802_a_at) / Fold change /veh SRD5A1 (11742802_a_at) / RFU TPSAB1 /// TPSB2 (11721975_s_at) / Fold change /veh TPSAB1 /// TPSB2 (11721975_s_at) / RFU GSTM3 (11746129_a_at) / Fold change /veh GSTM3 (11746129_a_at) / RFU IL23R (11737362_x_at) / Fold change /veh IL23R (11737362_x_at) / RFU TMEM51 (11727254_a_at) / Fold change /veh TMEM51 (11727254_a_at) / RFU PIWIL2 (11732686_x_at) / Fold change /veh PIWIL2 (11732686_x_at) / RFU ORM1 (11744905_x_at) / Fold change /veh ORM1 (11744905_x_at) / RFU CCDC152 (11743942_at) / Fold change /veh CCDC152 (11743942_at) / RFU ECM1 (11717891_a_at) / Fold change /veh ECM1 (11717891_a_at) / RFU IL23R (11748794_a_at) / Fold change /veh IL23R (11748794_a_at) / RFU TNFAIP8L3 (11732012_x_at) / Fold change /veh TNFAIP8L3 (11732012_x_at) / RFU MBOAT4 (11741988_at) / Fold change /veh MBOAT4 (11741988_at) / RFU 11764193_at / Fold change /veh 11764193_at / RFU TMEM53 (11763286_at) / Fold change /veh TMEM53 (11763286_at) / RFU MAGEB2 (11727129_at) / Fold change /veh MAGEB2 (11727129_at) / RFU TMEM200A (11744735_a_at) / Fold change /veh TMEM200A (11744735_a_at) / RFU CCDC152 (11751479_a_at) / Fold change /veh CCDC152 (11751479_a_at) / RFU FAM211A (11726209_a_at) / Fold change /veh FAM211A (11726209_a_at) / RFU RGS16 (11746705_a_at) / Fold change /veh RGS16 (11746705_a_at) / RFU VCAN (11755009_s_at) / Fold change /veh VCAN (11755009_s_at) / RFU RHOB (11743442_s_at) / Fold change /veh RHOB (11743442_s_at) / RFU RGS16 (11720943_a_at) / Fold change /veh RGS16 (11720943_a_at) / RFU RGS16 (11720944_at) / Fold change /veh RGS16 (11720944_at) / RFU, VPS4B / Fold change vs veh, VPS4B / RFU, CREB1 / Fold change vs veh, CREB1 / RFU, DNAJC13 / Fold change vs veh, DNAJC13 / RFU, GNAQ / Fold change vs veh, GNAQ / RFU, CDK5R1 / Fold change vs veh, CDK5R1 / RFU, ZRANB3 / Fold change vs veh, ZRANB3 / RFU, CUL4A / Fold change vs veh, CUL4A / RFU, CCNY / Fold change vs veh, CCNY / RFU, UFL1 / Fold change vs veh, UFL1 / RFU, COG3 / Fold change vs veh, COG3 / RFU, DIAPH2 / Fold change vs veh, DIAPH2 / RFU, SKA2 / Fold change vs veh, SKA2 / RFU, AFF3 / Fold change vs veh, AFF3 / RFU, LMF1 / Fold change vs veh, LMF1 / RFU, IPO11 / Fold change vs veh, IPO11 / RFU, DFFB / Fold change vs veh, DFFB / RFU, FOXP1 / Fold change vs veh, FOXP1 / RFU, CARD8 / Fold change vs veh, CARD8 / RFU, STRN3 / Fold change vs veh, STRN3 / RFU, ADK / Fold change vs veh, ADK / RFU, RASSF2 / Fold change vs veh, RASSF2 / RFU, WIPF1 / Fold change vs veh, WIPF1 / RFU, LARP1B / Fold change vs veh, LARP1B / RFU, RASA1 / Fold change vs veh, RASA1 / RFU, RB1 / Fold change vs veh, RB1 / RFU, PPFIA1 / Fold change vs veh, PPFIA1 / RFU, MAT2A / Fold change vs veh, MAT2A / RFU, CCT5 / Fold change vs veh, CCT5 / RFU, WDR92 / Fold change vs veh, WDR92 / RFU, CUX1 / Fold change vs veh, CUX1 / RFU, TTC7A / Fold change vs veh, TTC7A / RFU, TMEM135 / Fold change vs veh, TMEM135 / RFU, DEPTOR / Fold change vs veh, DEPTOR / RFU, CPM / Fold change vs veh, CPM / RFU, DNAJB6 / Fold change vs veh, DNAJB6 / RFU, CACNA2D3 / Fold change vs veh, CACNA2D3 / RFU, DTX4 / Fold change vs veh, DTX4 / RFU, TFCP2 / Fold change vs veh, TFCP2 / RFU, GMCL1 /// GMCL1P1 / Fold change vs veh, GMCL1 /// GMCL1P1 / RFU, AEBP2 / Fold change vs veh, AEBP2 / RFU, SNHG1 /// SNORD22 /// SNORD25 /// SNORD26 /// SNORD27 /// SNORD28 /// SNORD29 /// SNORD31 / Fold change vs veh, SNHG1 /// SNORD22 /// SNORD25 /// SNORD26 /// SNORD27 /// SNORD28 /// SNORD29 /// SNORD31 / Fold change (Aza/veh), C12orf56 (ProbeSet 11735607_a_at) / Fold change (ACY-1035/veh), C12orf56 (ProbeSet 11735607_a_at) / Fold change (Aza/veh), FGFR1OP (ProbeSet 11751329_s_at) / Fold change (ACY-1035/veh), FGFR1OP (ProbeSet 11751329_s_at) / Fold change (Aza/veh), VPS36 (ProbeSet 11739960_a_at) / Fold change (ACY-1035/veh), VPS36 (ProbeSet 11739960_a_at) / RFU SYPL1 (11715823_x_at) / Fold change /veh SYPL1 (11715823_x_at) / RFU IGFBP7 (11715501_s_at) / Fold change /veh IGFBP7 (11715501_s_at) / RFU REEP3 (11722064_at) / Fold change /veh REEP3 (11722064_at) / RFU IGLL1 (11728026_x_at) / Fold change /veh IGLL1 (11728026_x_at): dose or concentration left out as unconfirmed. The settings on record: ProbeSet 11717702_a_at; LIST D.

`Nc1ccc(-c2cccs2)cc1NC(=O)c1ccc2c(c1)cc(C1CC1)n2CCN1CCOCC1` [ACY-1035]: the “Fold change vs veh, RB1” value turned out to be 0.96.

The values are drawn from publication PMC5218480 (PLoS ONE, 2017).
